In test [1] the target is T1, LMP7 (Homo sapiens, UniProt P28062).
T1 construct: using MOLT-4 cell lysate as the enzyme source of LMP7; endogenous in cells; host or cells: MOLT-4 (human acute lymphoblastic leukemia cells)
Nature of the test: Enzymatic inhibitory activity on LMP7 (MOLT-4 cell lysate, Ac-ANW-AMC substrate). Format: biochemical. Particulars: 1 hour pre-incubation. The essentials: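 Enzyme source was MOLT-4 cell lysate (20 ng/μl final) in 20 mM Tris pH 8.0, 0.5 mM EDTA, preincubated 1 h at 23 °C with compound at 9 final concentrations (0–2000 nM). Ac-ANW-AMC ([…]) was then added, 2 h at 23 °C in the dark. AMC fluorescence (ex 345/em 445 nm) gave the IC50.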

A further test has as its target T2, β5 (Homo sapiens, UniProt P28074).
T2 construct: using HEK-293 cell lysate as the enzyme source of D5; endogenous in cells; host or cells: HEK-293 (human embryonic kidney cells)
Nature of the test: Enzymatic inhibitory activity on β5 (HEK-293 cell lysate, Ac-WLA-AMC substrate). Format: biochemical. Particulars: 1 hour pre-incubation. Summed up:
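HEK-293 lysate (25 ng/μl final) preincubated 1 h at 23 °C with compound (9-point, 5-fold dilutions) in 20 mM Tris pH 8.0, 0.5 mM EDTA. Ac-WLA-AMC then added at 20 μM final for 2 h at 23 °C in the dark. AMC fluorescence read at Ex 345/Em 445 nm; IC50 from curve fit.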

Test [2] has as its target T1, LMP7. Nature of the test: Cytological inhibitory activity on LMP7 in MOLT-4 cells. It is filed as cell-based. The settings on record: incubation for 2 hours with compound, read-out: Cytological activity data LMP7 Activity (MOLT-4Cell). The essentials:
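MOLT-4 cells pre-incubated 2 h with compound (8 concentrations, 5-fold dilution series from 2 mM DMSO stock, 5% FBS), washed and lysed. Lysate (20 ng/μl, 2× stock) reacted with Ac-ANW-AMC (100 μM, 2× stock) in 20 mM Tris pH 8.0, 0.5 mM EDTA, 1 h, 23 °C. Fluorescence at 345/445 nm; IC50 fitted.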

Consider `O=C(Nc1ccc(F)cc1F)C(=O)N[C@@H](Cc1coc2ccccc12)B(O)O` [Ex. 55, (R)-(2-(benzofuran-3-yl)-1-(2-oxo-2-(2,4-difluorophenylamino)acetamido)ethyl)boronic acid], for which the IC50 came to 1.43 nM on LMP7 [1], 54.6 nM against β5 and 6.84 nM at LMP7 [2].
The corresponding values for `CC1(C)OB([C@H](Cc2coc3ccccc23)NC(=O)C(=O)Nc2cnccn2)OC1(C)C` [Ex. 19, N-((1R)-2-(1-benzofuran-3-yl)-1-(tetramethyl-1,3,2-dioxaborolan-2-yl)ethyl)-N-(pyrazin-2-yl)oxalamide] are 1.11 nM, 12.2 nM and 0.69 nM.
The corresponding values for `CC1(C)[C@@H]2C[C@H]3OB([C@H](Cc4coc5ccccc45)NC(=O)C(=O)Nc4cnccn4)O[C@@]3(C)[C@H]1C2` [Ex. 17, (R)-(2-(benzofuran-3-yl)-1-(2-oxo-2-(pyrazin-2-ylamino)acetamido)ethyl) boronic acid (1S,2S,3R,5S)-(+)-pinane-2,3-diol ester] are 2.6 nM, 30.1 nM and 0.8 nM.
In the case of `O=C(Nc1cnc2ccccc2n1)C(=O)N[C@@H](Cc1coc2ccccc12)B(O)O` [Ex. 47, (R)-(2-(benzofuran-3-yl)-1-(2-oxo-2-(quinoxalin-2-ylamino)acetamido)ethyl) boronic acid], the IC50 against LMP7 [1] was determined as 3.1 nM; against β5 it was 43.5 nM; at LMP7 [2], 2.32 nM.
As to `Cn1ccnc1NC(=O)C(=O)N[C@@H](Cc1coc2ccccc12)B(O)O` [Ex. 37, (R)-(2-(benzofuran-3-yl)-1-(2-oxo-2-((1-methyl-1H-imidazol-2-yl)amino)acetamido)ethyl)boronic acid], the IC50 on LMP7 [1] is 5.93 nM; on β5, 264 nM; at LMP7 [2], 111 nM.
As to `O=C(Nc1cccnc1)C(=O)N[C@@H](Cc1coc2ccccc12)B(O)O` [Ex. 21, (R)-(2-(benzofuran-3-yl)-1-(2-(pyridin-3-yl)amino-2-oxoacetamido)ethyl) boronic acid], the IC50 was 2.86 nM at LMP7 [1], 29 nM at β5 and 3.45 nM on LMP7 [2].
As for `O=C(NCC1CCCO1)C(=O)N[C@@H](Cc1coc2ccccc12)B(O)O` (stereo partly drawn) [Ex. 22, (R)-(2-(benzofuran-3-yl)-1-(2-(((tetrahydrofuran-2-yl)methyl)amino)-2-oxoacetamido)ethyl)boronic acid], the IC50 was 3.57 nM against LMP7 [1], 22.2 nM against β5 and 1.83 nM on LMP7 [2].
The corresponding values for `CC1(C)CC(C)(C)OB([C@H](Cc2coc3ccccc23)NC(=O)C(=O)Nc2cnccn2)O1` [Ex. 72] are 1.46 nM, 21.8 nM and 0.98 nM.
As for `CC1COB([C@H](Cc2coc3ccccc23)NC(=O)C(=O)Nc2cnccn2)O1` (stereo partly drawn) [Ex. 68], the IC50 worked out at 1.24 nM on LMP7 [1], 34.8 nM against β5 and 1.1 nM on LMP7 [2].
The corresponding values for `O=C(N[C@@H](Cc1coc2ccccc12)B(O)O)C(=O)N1C2CCC1COC2` [Ex. 39, (R)-(2-(benzofuran-3-yl)-1-(2-oxo-2-(3-oxa-8-azabicyclo[3.2.1]octan-8-yl)acetamido)ethyl)boronic acid] are 5.95 nM, 392 nM and 3.51 nM.
Regarding `Cn1cccc(NC(=O)C(=O)N[C@@H](Cc2coc3ccccc23)B2O[C@@H]3C[C@@H]4C[C@@H](C4(C)C)[C@]3(C)O2)c1=O` [Ex. 57, (R)-(2-(benzofuran-3-yl)-1-(2-oxo-2-((1-methyl-2-oxo-1,2-dihydropyridin-3-yl)amino)acetamido)ethyl)boronic acid (1S,2S,3R,5S)-(+)-pinane-2,3-diol ester], the IC50 on LMP7 [1] worked out at 1.32 nM; against β5, 140 nM; at LMP7 [2], 4.03 nM.

The values above are taken from patent publication US20240425529A1, “BORIC ACID DERIVATIVE” (SHOUYAO HOLDINGS (BEIJING) CO., LTD., priority 2021, published 2024).
